Each block holds one compound with its values, some of them ahead of it.
Columns and labels:
[1] = target: T1, Tyrosine-protein kinase HCK (Homo sapiens, UniProt P08631); assay: Inhibition of HCK (75 to 526 residues) (unknown origin) expressed in Sf9 insect cells after 120 mins
[2] = target: T1, Tyrosine-protein kinase HCK; assay: biochemical

T1 sequence (P08631 whole entry, the tested form may be a part): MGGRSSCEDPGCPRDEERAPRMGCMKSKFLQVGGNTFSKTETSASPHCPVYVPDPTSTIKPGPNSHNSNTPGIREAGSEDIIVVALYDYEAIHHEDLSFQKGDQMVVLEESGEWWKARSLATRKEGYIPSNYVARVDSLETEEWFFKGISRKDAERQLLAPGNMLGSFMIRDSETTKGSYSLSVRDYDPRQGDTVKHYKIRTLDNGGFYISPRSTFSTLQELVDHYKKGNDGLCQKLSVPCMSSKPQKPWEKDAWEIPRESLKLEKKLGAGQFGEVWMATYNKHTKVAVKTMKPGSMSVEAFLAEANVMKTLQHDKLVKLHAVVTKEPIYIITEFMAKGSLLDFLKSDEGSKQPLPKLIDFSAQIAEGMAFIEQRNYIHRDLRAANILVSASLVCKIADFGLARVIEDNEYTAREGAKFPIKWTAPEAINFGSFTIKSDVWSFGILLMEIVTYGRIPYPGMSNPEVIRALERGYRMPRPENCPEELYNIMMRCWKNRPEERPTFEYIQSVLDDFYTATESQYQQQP

SMILES: CNC(=O)[C@H](CC(C)C)N[C@H]1CC[C@H](n2cc(-c3ccc(Oc4ccccc4)cc3)c3c(N)ncnc32)CC1
IC50 ([1]; read-out: IC50): 111 nM

SMILES: CC(C)C[C@H](N[C@H]1CC[C@H](n2cc(-c3ccc(Oc4ccccc4)cc3)c3c(N)ncnc32)CC1)C(=O)O
IC50 ([1]; read-out: IC50): 11 nM

SMILES: CC(C)C[C@H](N[C@H]1CC[C@H](n2cc(-c3ccc(Oc4ccccc4)cc3)c3c(N)ncnc32)CC1)C(=O)N(C)C
IC50 ([1]; read-out: IC50): 686 nM

SMILES: CN1CCN([C@H]2CC[C@H](n3cc(-c4ccc(Oc5ccccc5)cc4)c4c(N)ncnc43)CC2)CC1
IC50 [2]: 0.43 nM
IC50 ([1]; read-out: pIC50 (converted)): 0.427 nM

Continued, values first:

IC50 ([1]; read-out: IC50): 210 nM
SMILES: CC(C)C[C@H](N[C@H]1CC[C@H](n2cc(-c3ccc(Oc4ccccc4)cc3)c3c(N)ncnc32)CC1)C(N)=O

IC50 ([1]; read-out: IC50): 1320 nM
SMILES: CCOC(=O)[C@H](CC(C)C)N[C@H]1CC[C@H](n2cc(-c3ccc(Oc4ccccc4)cc3)c3c(N)ncnc32)CC1

Source: ChEMBL document CHEMBL4052720, “Activity cliff for 7-substituted pyrrolo-pyrimidine inhibitors of HCK explained in terms of predicted basicity of the amine nitrogen” (Bioorg Med Chem, 2017)
